# Results taken from US20120065165A1, “COMPOSITIONS AND METHODS OF TREATING ENDOTHELIAL DISORDERS” (ARGINETIX, INC, priority 2008, published 2012).
# Assays:
# rat aortic rings = test: Vasorelaxation of aortic rings in organ chambers after 28 days oral ABH; type: in vivo
# Method: To investigate whether these changes in vascular stiffness could be related to specific measures of endothelial function, rats were euthanized following treatment, and the thoracic aortas dissected and placed in organ chambers as previously described (White, et al., 2006 Hypertension 47: 245-251). Rat aortic rings were pre-constricted using phenylephrine (1 μM), and vasorelaxant response to the endothelial-dependent (NO mediated) vasodilator acetylcholine (ACh), administered at 1 μM to 10 μM, was determined. […] ABH had no effect on vascular endothelial relaxation in young rats.
# eNOS = eNOS activity (L-arginine to L-citrulline) in human diabetic corpus cavernosum extracts; type: biochemical; details: 1 mM ABH added to diabetic penile extracts
# Text: In order to study the role of arginase in the development of these defects, corpus cavernosum tissue extracts were obtained from non-diabetic and diabetic men undergoing placement of a penile prosthesis for the management of their severe ED (Bivalacqua, et al., 2001 Biochem. Biophys. Res. Commun. 283: 923-927). […] Constitutive nitric oxide synthase activity (eNOS activity; calcium-dependent conversion of L-arginine to L-citrulline) is […] in human corporal tissue from diabetic patients vs. controls (See FIG. 7C), *P<0.05 when compare to controls; in the presence of the selective arginase inhibitor ABH, eNOS activity in human diabetic corpora caversosa is restored, **P<0.05 when compared to diabetic (Bivalacqua, et al., 2001 Biochem. Biophys. Res. Commun. 283: 923-927).
# Diabetic corporal tissue extracts were prepared for the measurement of arginase activity by the production of urea in the presence of labeled arginine (FIG. 7B).
# arginase II = target: T1, arginase II (Homo sapiens, UniProt P78540); details: cited from earlier work
# T1 sequence (P78540 23-354): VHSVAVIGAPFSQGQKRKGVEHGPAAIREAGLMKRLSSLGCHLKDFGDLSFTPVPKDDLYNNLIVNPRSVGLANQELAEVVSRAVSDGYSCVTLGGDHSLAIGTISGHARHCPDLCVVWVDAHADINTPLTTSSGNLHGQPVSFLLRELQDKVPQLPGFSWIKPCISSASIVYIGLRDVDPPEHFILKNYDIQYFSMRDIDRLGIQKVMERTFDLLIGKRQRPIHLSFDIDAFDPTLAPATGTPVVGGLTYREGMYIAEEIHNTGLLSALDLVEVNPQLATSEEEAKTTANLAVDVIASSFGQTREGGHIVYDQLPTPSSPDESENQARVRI
# aged Fisher rats = test: Vascular stiffness by pulse wave velocity (PWV) in Fisher rats; type: in vivo, rat
# Method: When the heart contracts it generates a pulse, or energy wave, that travels through the circulatory system. […] PWV was determined in aged (22-26 months) Fisher rats, treated with ABH as described in Example 1. […] PWV was measured before and after 28 days of treatment with ABH (6 mg/kg) (See FIG. 5A). ABH improved vascular function in aortic rings tested in organ chambers (See FIG. 5B), while an endothelial-independent NO donor, SNP had no effect (C). *p<0.01 vs. young and #p<0.05 vs. old pre-treated, (n=3-8). […] This affect was not observed in untreated aged rats. There was a small but statistically significant increase in vascular stiffness in young control rats over the 28 days of the experiment. This change however was not observed in rats that were treated with ABH.
smiles,measurement,setting,value
"N[C@@H](CCCCB(O)O)C(=O)O [ABH, 2(S)-Amino-6-boronohexanoic acid]",responses to the endothelial-independent NO donor SNP in aortic rings,rat aortic rings; after 28 days oral ABH,not affected
same,vascular relaxation to acetylcholine (ACh) in aortic rings,"rat aortic rings; aged rats, 28 days oral ABH, rings pre-constricted with phenylephrine 1 μM",substantially improved
same,vascular endothelial relaxation in aortic rings,rat aortic rings; young rats,no effect
same,eNOS activity,eNOS,improved to levels that were comparable to those of control corpus cavernosum
same,potency as inhibitor of arginase II,arginase II,most potent inhibitor
same,"vascular stiffness (pulse wave velocity, PWV)","aged Fisher rats; aged (22-26 months) rats, ABH 6 mg/kg 28 days",marked decrease in vascular stiffness
same,increase in vascular stiffness over the 28 days of the experiment,"aged Fisher rats; young rats, ABH treated vs young control rats",not observed
